Molecular target: T1, olfactory receptor OR5K1 (Homo sapiens, UniProt Q8NHB7)
T1 construct: expressed in transfected cells; host or cells: HEK293
T1 sequence (Q8NHB7 1-308): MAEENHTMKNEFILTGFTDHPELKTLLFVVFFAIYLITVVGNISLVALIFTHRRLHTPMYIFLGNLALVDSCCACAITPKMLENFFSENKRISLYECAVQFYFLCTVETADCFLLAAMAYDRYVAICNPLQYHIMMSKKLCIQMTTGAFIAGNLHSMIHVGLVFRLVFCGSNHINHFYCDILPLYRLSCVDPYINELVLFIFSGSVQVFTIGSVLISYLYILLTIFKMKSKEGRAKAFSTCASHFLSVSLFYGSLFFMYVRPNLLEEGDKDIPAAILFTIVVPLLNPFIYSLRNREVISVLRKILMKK
Test: Luciferase reporter gene assay: response of olfactory receptor OR5K1 expressed in HEK293 cells to pyrazine compounds
Type: cell-based
Conditions: for dependency of the response of OR5K1 on the concentration of pyrazine compounds: 0, 3, 10, 30, 100, 300 and 1000 μM, HEK293 cells with RTP1S variant, FIG. 2
Text: Human olfactory receptors were cloned based on sequence information registered in GenBank by PCR using human genomic DNA female (G1521: Promega Corporation) as a template. Each gene amplified by PCR was inserted into a pENTR vector (Invitrogen Inc.) in accordance with the manual and was recombined into the NotI and AscI site located downstream of a Flag-Rho tag sequence in a pME18S vector using the NotI and AscI site present in the pENTR vector.
An RTP1S variant gene (SEQ ID NO: 3) encoding an RTP1S variant (SEQ ID NO: 4) was inserted into the EcoRI and XhoI site of a pME18S vector.
HEK293 cells expressing 373 types of human olfactory receptors were produced. A reaction solution having a composition shown in Table 1 was prepared and left to stand in a clean bench for 15 min and then was dispensed in each well of a 96-well plate (Becton, Dickinson and Company). Subsequently, HEK293 cells (100 μL, 3×10^5 cells/cm^2) were seeded in each well and cultured in an incubator at 37° C. and 5% CO2 for 24 hr.
An olfactory receptor expressed in HEK293 cells couples with endogenous Gas in the cells to activate adenylate cyclase and thereby increases the amount of intracellular cAMP. In this study, the response of a pyrazine derivative was measured by luciferase reporter gene assay which monitors an increase in amount of intracellular cAMP as the luminescence value derived from a firefly luciferase gene (fluc2P-CRE-hygro). A Renilla luciferase gene was fused downstream of a CMV promoter (hRluc-CMV) and was also introduced to HEK293 cells as an internal standard to correct errors in transgenic efficiency and number of cells.
The culture medium was removed from the culture produced in the above 3), and 75 μL of a solution prepared with a CD293 medium (Invitrogen Inc.) so as to contain a pyrazine derivative (1 mM, 2,6-dimethylpyrazine) was added thereto. The cells were cultured in a CO2 incubator for 2.5 hr to sufficiently express the luciferase gene in the cells. The luciferase activity was measured with a Dual-Glo™ luciferase assay system (Promega Corporation) in accordance with the operating manual of the system. The fold increases were calculated by dividing the luminescence value derived from firefly luciferase induced by stimulation with a pyrazine derivative at each concentration by the luminescence value in cells not stimulated with the pyrazine derivative and were used as an index of response strength.
Olfactory receptor OR5K1 (SEQ ID NO: 2) was expressed in HEK293 cells together with an RTP1S variant (SEQ ID NO: 4) by the same procedure as in Example 1, and the dependency of the response on the concentration (0, 3, 10, 30, 100, 300, and 1000 μM) of various pyrazine compounds was investigated. The pyrazine compounds used in this Example were pyrazine and pyrazine derivatives selected from the group consisting of 2-methylpyrazine, 2,3-dimethylpyrazine, 2,5-dimethylpyrazine, 2,3,5-trimethylpyrazine, 2,3,5,6-tetramethylpyrazine, and 2-ethylpyrazine.

Structure (SMILES) | dependency of the response of OR5K1 on the concentration of pyrazine compounds | response of olfactory receptor to 2,6-dimethylpyrazine (fold increase of luciferase luminescence) (1 mM, 373 types of human olfactory receptors screened in HEK293 cells, FIG. 1)
Cc1nc(C)c(C)nc1C [2,3,5,6-tetramethylpyrazine] | dose-dependently responded | –
Cc1cnc(C)c(C)n1 [2,3,5-trimethylpyrazine] | dose-dependently responded | –
Cc1nccnc1C [2,3-dimethylpyrazine] | dose-dependently responded | –
Cc1cnc(C)cn1 [2,5-dimethylpyrazine] | dose-dependently responded | –
Cc1cncc(C)n1 [2,6-dimethylpyrazine] | dose-dependently responded | responded
CCc1cnccn1 [2-ethylpyrazine] | dose-dependently responded | –
Cc1cnccn1 [2-methylpyrazine] | dose-dependently responded | –
c1cnccn1 [pyrazine] | did not respond | –

From patent US10159655B2, “Agent for inhibiting odor of pyrazine derivatives” (Kao Corporation, priority 2012, dated 2018)
